{"source": "patent US20220184071A1", "about": "“GEPOTIDACIN FOR USE IN THE TREATMENT OF BACTERIAL URINARY TRACT INFECTIONS” (GlaxoSmithKline Intellectual Property Development Limited, priority 2019, published 2022)", "key": {"[1]": {"experiment": "Exposure in epithelial lining fluid (ELF) and alveolar macrophages (AM), healthy subjects", "assay_type": "in vivo", "settings": "human, single 1000 mg IV infusion over 2 hours", "description": "Antibiotic target site exposures play a key role as suboptimal levels may lead to therapeutic failure and resistance. Across multiple clinical studies, exposures to gepotidacin were assessed in plasma and other matrices, such as urine, saliva, epithelial lining fluid (ELF) and Alveolar Macrophages (AM).\n(§1) Bronchoalveolar lavage samples were collected to determine gepotidacin exposures in ELF and AM following a single 1000 mg IV infusion over 2 hours to healthy subjects. Saliva exposure was assessed in healthy volunteers following 1500 mg oral single dose. Gepotidacin exposures in urine was assessed in women with acute uUTI following 1500 mg BID oral doses for 5 days."}, "[2]": {"experiment": "Plasma and urine pharmacokinetics, phase IIa study in women with acute uUTI", "assay_type": "in vivo, human", "settings": "for Cmax: read-out: Plasma Cmax, Geometric Mean (% CVb); for AUC: po, uUTI patients, read-out: urine AUC[0-tau]", "description": "as §1\nThis phase IIa single center study evaluated the safety, tolerability, pharmacokinetics, and efficacy of oral gepotidacin 1500 mg BID for 5 days in female subjects with acute cystitis. Clean catch mid-stream urine specimens were obtained for quantitative culture by standard methods. Urine samples were taken from all participants pre-treatment (baseline) and at all post-baseline visits. All urine samples were sent to a central laboratory (PPD Global Clinical Laboratories, Highland Heights, Ky., USA) for Gram stain, quantitative culture, pathogen identification and susceptibility testing. See FIG. 1 for participant disposition and study outline.\nSerial blood and urine PK sampling were performed for the first dose of study treatment on Day 1 and for the time-matched dose on Day 4. Participants took all doses of gepotidacin with food and remained in the clinic to complete a total of 10 doses. Participants were instructed to return for the TOC (Day 10 to 13) and Follow-up (Day 28±3) Visits.\nFor pharmacokinetic assessments, serial blood and urine samples for the assessment of gepotidacin PK concentrations were collected out to 12 hours post dose (T) following the morning dose on Days 1 and 4. CT (trough) concentrations were collected on Days 1-5. PK concentrations of gepotidacin in plasma and urine were measured using a validated LC-MS/MS bio-analytical assay."}, "E. coli": {"test_system": "E. coli", "experiment": "MIC of the isolates used in the murine models", "assay_type": "cell-based, Escherichia coli"}, "Bilophila wadsworthia": {"test_system": "Bilophila wadsworthia", "experiment": "MIC by CLSI agar dilution, Example 6 Method 1", "assay_type": "cell-based", "settings": "26 isolates, read-out: Gepotidacin MIC90", "description": "(§2) Antimicrobial activity was determined by agar dilution using the Clinical and Laboratory Standards Institute (CLSI) recommended procedure.\n(§3) The compounds were tested in serial two-fold dilutions and the minimum inhibitory concentration (MIC) was determined as the lowest concentration of the compound that inhibited visible growth. Gepotidacin was tested against 333 gram-negative anaerobic and 203 gram-positive anaerobic isolates collected from clinical samples in North America and Europe from 2000 to 2017; the majority collected from 2013 to 2016.\n(§4) Ceftriaxone, clindamycin, imipenem, metronidazole, moxifloxacin and piperacillin/tazobactam were included as comparators."}, "[3]": {"test_system": "all the gram-negative anaerobe organisms combined", "experiment": "MIC by CLSI agar dilution, Example 6 Method 1", "assay_type": "cell-based", "settings": "all gram-negative anaerobes combined; read-out: overall MIC90", "description": "as §2, §3, §4"}, "[4]": {"test_system": "gram-positive anaerobe organisms combined", "experiment": "MIC by CLSI agar dilution, Example 6 Method 1", "assay_type": "cell-based", "settings": "gram-positive anaerobes combined; read-out: overall MIC90", "description": "as §2, §3, §4"}, "Clostridium bifermentans": {"test_system": "Clostridium bifermentans", "experiment": "MIC by CLSI agar dilution, Example 6 second study", "assay_type": "cell-based", "settings": "Paraclostridium bifermentans; 1 isolate", "text": "(§5) A second study tested gepotidacin by CLSI agar dilution against gram-positive and gram-negative anaerobic bacterial isolates from the GlaxoSmithKline Upper Providence culture collection. Amoxicillin, azithromycin, levofloxacin, and cefuroxime were included as comparators."}, "Fusobacterium spp.": {"test_system": "Fusobacterium spp.", "experiment": "MIC by CLSI agar dilution, Example 6 second study", "assay_type": "cell-based", "settings": "3 isolates", "text": "as §5"}, "Peptostreptococcus spp.": {"test_system": "Peptostreptococcus spp.", "experiment": "MIC by CLSI agar dilution, Example 6 second study", "assay_type": "cell-based", "settings": "4 isolates", "text": "as §5"}, "Prevotella spp.": {"test_system": "Prevotella spp.", "experiment": "MIC by CLSI agar dilution, Example 6 second study", "assay_type": "cell-based", "settings": "1 isolate", "text": "as §5"}}, "note": "Where “and” joins values, the source holds several entries; their conditions need not be identical. Equal entries are not always repeated. Where two headings read alike, the source gives them in different places.", "data": [{"smiles": "O=c1ccc2ncc(=O)n3c2n1C[C@H]3CN1CCC(NCc2cc3c(cn2)OCCC3)CC1", "note": "[gepotidacin, (2R)-2-({4-[(3,4-dihydro-2H-pyrano[2,3-c]pyridin-6-ylmethyl)amino]-1-piperidinyl}methyl)-1,2-dihydro-3H,8H-2a,5,8a-triazaacenaphthylene-3,8-dione]", "values": [{"measurement": "Kp", "setting": "[1]; alveolar macrophages, read-out: AM AUC(0-12) ratio to unbound plasma", "value": 178}, {"measurement": "Kp", "setting": "[1]; epithelial lining fluid, read-out: ELF AUC(0-12) ratio to unbound plasma", "value": 1.84}, {"measurement": "accumulation in plasma following BID dosing (based on AUC)", "setting": "[2]; 1500 mg BID oral", "value": 1.4, "unit": "fold"}, {"measurement": "dose excreted in urine over the 12-hour dosing interval", "setting": "[2]; Day 1", "value": "Approximately 20%"}, {"measurement": "Plasma CT, Geometric Mean (% CVb)", "setting": "[2]; Day 4", "value": "0.851 (41.1) [n = 21] μg/mL"}, {"measurement": "Urine CT, Geometric Mean (% CVb)", "setting": "[2]; Day 4", "value": "327 (248.7) [n = 21] μg/mL"}, {"measurement": "dose excreted in urine over the 12-hour dosing interval", "setting": "[2]; Day 4", "value": 31, "unit": "%"}, {"measurement": "Steady state attained by", "setting": "[2]; based on trough plasma concentrations", "value": "≤ 3", "unit": "days"}, {"measurement": "concentration at 12 h", "setting": "[2]; female, human, in vivo, over the 12-hour dosing interval, 1500 mg BID oral, read-out: minimum / steady-state trough urine concentrations (remained above a MIC of)", "value": "> 4000", "unit": "ng/mL"}, {"measurement": "AUC(0-t)", "setting": "[2]; female, human, plasma, oral, 1500 mg, Day 1, read-out: Plasma AUC(0-T), Geometric Mean (% CVb)", "value": 20.2, "unit": "µg·h/mL"}, {"measurement": "Cmax", "setting": "[2]; female, human, plasma, oral, 1500 mg, Day 1", "value": 5890, "unit": "ng/mL"}, {"measurement": "AUC(0-t)", "setting": "[2]; female, human, plasma, oral, 1500 mg, Day 4, read-out: Plasma AUC(0-T), Geometric Mean (% CVb)", "value": 29.3, "unit": "µg·h/mL"}, {"measurement": "Cmax", "setting": "[2]; female, human, plasma, oral, 1500 mg, Day 4", "value": 8440, "unit": "ng/mL"}, {"measurement": "Tmax", "setting": "[2]; female, human, plasma, oral, 1500 mg, plasma, Day 1, read-out: median Tmax", "value": 1.5, "unit": "h"}, {"measurement": "Tmax", "setting": "[2]; female, human, plasma, oral, 1500 mg, plasma, Day 4, read-out: median Tmax", "value": 1.92, "unit": "h"}, {"measurement": "Tmax", "setting": "[2]; female, human, plasma, oral, 1500 mg, plasma, Days 1 and 4, read-out: median Tmax values", "value": "1.5 to 1.92", "unit": "h"}, {"measurement": "half-life", "setting": "[2]; female, human, plasma, oral, 1500 mg, read-out: effective elimination half-life (converted)", "value": 396, "unit": "min"}, {"measurement": "AUC(0-t)", "setting": "[2]; female, human, urine, oral, 1500 mg, Day 1, read-out: Urine AUC(0-T), Geometric Mean (% CVb)", "value": 3740, "unit": "µg·h/mL"}, {"measurement": "AUC(0-t)", "setting": "[2]; female, human, urine, oral, 1500 mg, Day 4, read-out: Urine AUC(0-T), Geometric Mean (% CVb)", "value": 5970, "unit": "µg·h/mL"}, {"measurement": "AUC(0-t)", "setting": "[2]; female, human, urine, oral, 1500 mg, steady state, Day 4, read-out: Urinary AUC(0-24)", "value": 11900, "unit": "µg·h/mL"}, {"measurement": "Kp", "setting": "[2]; female, human, urine, oral, 1500 mg, read-out: Steady-state urine exposures (AUC[0-24]) exceeded free plasma exposures by", "value": "~300"}, {"measurement": "AUC", "setting": "[2]; female, human, urine, 1500 mg, Day 1, 1500 mg BID oral", "value": 3740, "unit": "µg·h/mL"}, {"measurement": "AUC", "setting": "[2]; female, human, urine, 1500 mg, Day 4, 1500 mg BID oral", "value": 5970, "unit": "µg·h/mL"}, {"measurement": "Urine Ctau", "setting": "[2]; from Day 3 onwards, 1500 mg BID oral", "value": "322 to 352", "unit": "µg/mL"}, {"measurement": "renal excretion", "setting": "[2]; healthy subjects (comparison)", "value": "7.5 % of dose"}, {"measurement": "free plasma AUC(0-24)", "setting": "[2]; steady state, Day 4", "value": "39.4 µg·h/mL and 39.3 µg·h/mL"}, {"measurement": "renal excretion", "setting": "[2]; uUTI participants", "value": "20 % of dose"}, {"measurement": "range of MICs", "setting": "E. coli; 5 isolates: ALL, 997577, ATCC25922, IR5, NCTC13441", "value": "1 to 4", "unit": "µg/mL"}, {"measurement": "Gepotidacin MIC", "setting": "E. coli; Strain 997577", "value": 2, "unit": "µg/mL"}, {"measurement": "Gepotidacin MIC", "setting": "E. coli; Strain ALL", "value": 4, "unit": "µg/mL"}, {"measurement": "Gepotidacin MIC", "setting": "E. coli; Strain ATCC25922", "value": 1, "unit": "µg/mL"}, {"measurement": "Gepotidacin MIC", "setting": "E. coli; Strain IR5", "value": 4, "unit": "µg/mL"}, {"measurement": "Gepotidacin MIC", "setting": "E. coli; Strain NCTC13441", "value": 2, "unit": "µg/mL"}, {"measurement": "MIC90", "setting": "Bilophila wadsworthia", "value": 0.5, "unit": "µg/mL"}, {"measurement": "MIC90", "setting": "[3]", "value": 4, "unit": "µg/mL"}, {"measurement": "MIC90", "setting": "[4]", "value": 2, "unit": "µg/mL"}, {"measurement": "MIC", "setting": "Clostridium bifermentans", "value": 0.06, "unit": "µg/mL"}, {"measurement": "MIC", "setting": "Fusobacterium spp.", "value": "0.12 to 1", "unit": "µg/mL"}, {"measurement": "MIC", "setting": "Peptostreptococcus spp.", "value": "0.12 to 2", "unit": "µg/mL"}, {"measurement": "MIC", "setting": "Prevotella spp.", "value": 4, "unit": "µg/mL"}]}]}
